From US20230346716A1, “TREATMENT OF SKIN DISORDERS WITH TOPICAL TAPINAROF COMPOSITIONS” (Sol-Gel Technologies Ltd., priority 2019, published 2023)

Experiments:
[1] = system: experimentally induced psoriasis in normal human skin grafted onto beige-SCID mice; assay: Study 1: histology of human skin xenograft psoriasis model in beige-SCID mice; format: in vivo; details: for Mean Epidermal Thickness: topical 14 days, grafts excised Day 56, mean ± SD
Text: (§1) The objective of this study was to determine the efficacy of tapinarof composition as described in Example 8 compared to the vehicle and Dexamethasone as shown below. The evaluation was based on histology analysis following application of the respective test formulations.
(§2) In this model, a psoriasis phenotype is induced in normal skin grafted onto beige-severe combined immunodeficient mice by intradermal injection of natural killer/T-cells derived from psoriatic patients (Gilhar et al., Psoriasis is mediated by a cutaneous defect triggered by activated immunocytes: induction of psoriasis by cells with natural killer receptors, J. Invest. Dermatol. 2002 August; 119(2):384-91).
(§3) In order to address the aim of the experiment, the psoriatic humanized mice were established Additionally, 10 psoriatic patients were recruited (six males and four females), ranging from 21 to 66 years (mean age 45 years). All patients had classic plaque psoriasis. Normal skin from one healthy volunteer was obtained for grafting.
(§4) The efficacy study has been conducted on female mice. The total duration of the experiment was 8 weeks, upon receiving of the human skin. Normal skin from healthy volunteers were obtained for grafting. Healthy human abdominal skin pieces with a width of 0.4 mm and surface area of 1.5×1.5 cm were provided. The skin sample was preserved in isotonic saline solution and transplanted within 6-12 hours after skin donation. In addition, blood samples were collected from psoriatic patients having classic plaque psoriasis and not undergoing any treatment. 20 mL blood samples were taken from both males and females psoriatic patients (from psoriatic patients having classic plaque psoriasis and not undergoing any treatment), and peripheral blood mononuclear cells (PBMC) were separated immediately after blood withdrawal.
(§5) Mice: Beige-severe combined immunodeficient mice C.B-17/IcrHsdscid-bg (beige-SCID) mice (weight ˜25 g) were included in this study. Mice were monitored twice a week for vital signs such as weight, food intake, coat, eyes, anal genital areas, discharge/soiling, behavior and criteria related to skin transplantation. Normal healthy human donor skin were transplanted onto the beige-SCID mice as previously described (See Keren A. et al., Novel nanosome delivery system combined with siRNA targeting the antimicrobial gene DFB4: a new approach for psoriasis management? ExpDermatol. 2014; 23:464-465; Bracke S. et a/., Targeted silencing of DEFB4 in a bioengineered skin-humanized mouse model for psoriasis: development of siRNA SECosome-based novel therapies. ExpDermatol. 2014; 23:199-201; Zaretsky M. et al., Directed evolution of a soluble human IL-17A receptor for the inhibition of psoriasis plaque formation in a mouse model. Chem Biol. 2013 21; 20:202-2; Gilhar A. et al., The beneficial effect of blocking Kv1.3 in the psoriasiform SCID mouse model. J Invest Dermatol. 2011; 131:118 124; Keren A. et al., Innate lymphoid cells 3 induce psoriasis in xenotransplanted healthy human skin. J Allergy Clin Immunol. 2018; 142:305-308.e6).
(§6) British Journal of Pharmacology 2010; 159:842-855).
(§7) Four weeks following the engraftment, each mouse was injected (intradermally) with 1×10^7 IL-2 enriched allogeneic PBMC's from psoriatic patients (1×10^7 cells injected/mouse). Cells from different psoriasis patients were equally distributed between treatment groups. Each patient was represented in each treatment group.
(§8) Fourteen days following cells injections, the mice were divided into treatment groups (Table 1, see below) and treated according to the timeline indicated below (see Scheme 1). Each transplant was equally topically treated (50 μg) by using a sterile spatula.
(§9) Dexamethasone (D2915, Sigma): was freshly prepared for each administration by dilution in saline to final concentration (50 mg/ml). […]

[2] = system: experimentally induced psoriasis in normal human skin grafted onto beige-SCID mice; assay: Study 2: histology of human skin xenograft psoriasis model in beige-SCID mice; format: in vivo; set-up: Mean Epidermal Thickness: unit not given here
Text: as §1, §2, §3, §4, §5, §6, §7, §8, §9

[3] = system: HBD2, Psoriasin (S100A7), CD4, CD8, IL-17, IL-22; assay: Study 2: immunohistochemical markers for psoriasis in human xenotransplants; format: in vivo, beige-SCID mice; details: immunohistochemistry of xenotransplants
[4] = as a single drug, psoriasis treatment; placebo 20.2%; cited from earlier work
[5] = histological evaluation of human skin grafts

Q: Which “Partial Recovery (percent of grafts)” value [1] does the source give for `C[C@@H]1C[C@H]2[C@@H]3CCC4=CC(=O)C=C[C@]4(C)[C@@]3(F)[C@@H](O)C[C@]2(C)[C@@]1(O)C(=O)CO` [Dexamethasone] here?
A: Its value is “(10%)”.

Q: What about the “Psoriatic Features (percent of grafts)” value [1] of the same compound?
A: The value was “(0%)”.

Q: And the “Baker score: Agranulosis - hypogranulosis” value ([1]; average ± SD)?
A: Its value is 0.1 ± 0.3.

Q: And the “Baker score: Blood vessels (tortuosity, elongation)” value ([1]; average ± SD)?
A: Its value is 0.05 ± 0.1.

Q: And the “Baker score: Epidermal thickening (acanthosis)” value ([1]; average ± SD)?
A: Its value is 0.05 ± 0.1.

Q: And the “Baker score: Hyperkeratosis” value ([1]; average ± SD)?
A: Its value is 0.05 ± 0.1.

Q: What about the “Baker score: Mononuclear cells infiltrate in the papillary dermis” value ([1]; average ± SD) of the same compound?
A: Its value is 0.2 ± 0.6.

Q: What about the “Baker score: Munro micro abscess” value ([1]; average ± SD) of the same compound?
A: The value was 0 ± 0.

Q: And the “Baker score: Parakeratosis” value ([1]; average ± SD)?
A: The value was 0.1 ± 0.3.

Q: What about the “Baker score: Regular/abnormal elongation of rete ridges” value ([1]; average ± SD) of the same compound?
A: The value was 0.1 ± 0.4.

Q: What about the “Baker score: Suprapapillary epidermal thinning” value ([1]; average ± SD) of the same compound?
A: The value was 0.05 ± 0.1.

Q: What about the “Histological Scoring (Baker system), Total Score” value ([1]; average ± SD) of the same compound?
A: Its value is 0.7 ± 1.9.

Q: What about the “Complete Recovery (grafts/total grafts)” value [1, 5] of the same compound?
A: Its value is 9/10.

Q: And the “Partial Recovery (grafts/total grafts)” value [1, 5]?
A: Its value is 1/10.

Q: What about the “Psoriatic Features (grafts/total grafts)” value [1, 5] of the same compound?
A: The value was 0/10.

Q: And the “Mean Epidermal Thickness” value [1]?
A: The value was 254±59 μm.

Q: And the “Mean Epidermal Thickness” value ([1]; listed as Dexamethasone 2 mg)?
A: Its value is 254 ± 59 μm.

Q: And the “Proliferation index (%)” value [2]?
A: Its value is 6 ± 2%.

Q: And the “Baker score: Agranulosis - hypogranulosis” value ([2]; average ± SD)?
A: The value was 0.1 ± 0.3.

Q: And the “Baker score: Blood vessels (tortuosity, elongation)” value ([2]; average ± SD)?
A: Its value is 0.05 ± 0.1.

Q: And the “Baker score: Epidermal thickening (acanthosis)” value ([2]; average ± SD)?
A: Its value is 0.05 ± 0.1.

Q: And the “Baker score: Hyperkeratosis” value ([2]; average ± SD)?
A: The value was 0 ± 0.

Q: What about the “Baker score: Mononuclear cells infiltrate in the papillary dermis” value ([2]; average ± SD) of the same compound?
A: Its value is 0 ± 0.

Q: And the “Baker score: Munro micro abscess” value ([2]; average ± SD)?
A: The value was 0 ± 0.

Q: And the “Baker score: Parakeratosis” value ([2]; average ± SD)?
A: The value was 0 ± 0.

Q: What about the “Baker score: Regular/abnormal elongation of rete ridges” value ([2]; average ± SD) of the same compound?
A: The value was 0 ± 0.

Q: And the “Baker score: Suprapapillary epidermal thinning” value ([2]; average ± SD)?
A: The value was 0.05 ± 0.1.

Q: And the “Histological Scoring (Baker system), Total Score” value ([2]; average ± SD)?
A: Its value is 0.25 ± 0.8.

Q: And the “Complete Recovery (grafts/total grafts)” value [2, 5]?
A: Its value is 10/10.

Q: What about the “Partial Recovery (grafts/total grafts)” value [2, 5] of the same compound?
A: The value was 0/10.

Q: What about the “Psoriatic Features (grafts/total grafts)” value [2, 5] of the same compound?
A: Its value is 0/10.

Q: What about the Mean Epidermal Thickness ([2]; mean ± SD) of the same compound?
A: The Mean Epidermal Thickness was 193 ± 71.

Q: And the CD4 [3]?
A: Its CD4 is 0.5 ± 0.8 Cells per 0.66 mm^2.

Q: And the CD8 [3]?
A: Its CD8 is 0.6 ± 0.6 Cells per 0.66 mm^2.

Q: And the “HBD2 (Integrated intensity, %)” value [3]?
A: The value was 5.8 ± 0.9%.

Q: And the IL-17 [3]?
A: Its IL-17 is 0.6 ± 0.9^ Cells per 0.66 mm^2.

Q: And the IL-22 [3]?
A: The IL-22 was 0.4 ± 0.8 Cells per 0.66 mm^2.

Q: What about the “Psoriasin (S100A7) (Integrated intensity, %)” value [3] of the same compound?
A: Its value is 6.6 ± 2.1%.

Q: With `C=C1/C(=C\C=C2/CCC[C@]3(C)[C@@H]([C@H](C)/C=C/[C@@H](O)C4CC4)CC[C@@H]23)C[C@@H](O)C[C@@H]1O` [calcipotriene] as the compound, how does the adverse effects [4] read?
A: The adverse effects was 19.5%.

Q: Which adverse effects [4] does the source give for `CC(C)c1c(O)cc(/C=C/c2ccccc2)cc1O` [Tapinarof, 3,5-dihydroxy-4-isopropyl-trans-stilbene] here?
A: Its adverse effects is 44.5%.
